# In patent US8729098B2, “Tertiary 8-hydroxyquinoline-7-carboxamide derivatives and uses thereof” (Polichem SA, priority 2009, dated 2014):
# Key:
# invasive aspergillosis = conditions: daily administered at 10 mg/kg; cited from earlier work
# [1] = tested on: Candida Glabrata (ATCC 90030); experiment: Broth micro-dilution antifungal susceptibility test (MIC); assay type: cell-based; conditions: Nakaseomyces glabratus, ATCC90030; RPMI 1640 pH 7, 48 h at 35° C.; geometric mean of two experiments
# Method: (§1) Trichophyton Rubrum (ATCC 28188, PBI International), Trichophyton Mentagrophytes (ATCC 9533, PBI International), Aspergillus Niger (ATCC 16404, PBI International), Scopulariopsis Brevicaulis (ATCC 36840, DSMZ), Candida Albicans (ATCC 90028, PBI International), Candida Glabrata (ATCC 90030, DSMZ).
# (§2) Strains were prepared from freeze-dried ampoules or freeze-dried pellets. An isolation of the suspensions was made on Potato Dextrose Agar (PDA) to test the strains purity. A strains' massive growth was then made streaking microbial suspensions on PDA plates.
# (§3) Incubation was at 30° C. for 48-72 hours (Candida yeasts) and for 7-10 days (filamentous fungi).
# (§4) The yeasts' colonies and the filamentous fungi's conidia were harvested with 3-5 mL of RPMI 1640+50% glycerol and the aliquots frozen at −80° C.
# (§5) Compounds' minimal inhibition concentration (MIC) was determined through broth micro-dilution susceptibility test using a method developed in agreement with the National Committee for Clinical Laboratory Standards (NCCLS) (National Committee for Clinical Laboratory Standards. Reference Method for Broth Dilution Antifungal Susceptibility Testing of Yeasts; Approved standard-Second Edition M27-A2. 2002; Vol. 22, No. 15) (National Committee for Clinical Laboratory Standards. Reference Method for Broth Dilution Antifungal Susceptibility Testing of Filamentous Fungi; Approved standard M38-A. 2002; Vol. 22, No. 16).
# (§6) Assays were carried out in RPMI 1640 with L-glutamine medium buffered to pH 7 with 0.165M 3-(N-morpholino)propanesulfonic acid (MOPS) and 10M NaOH and supplemented with 18 g glucose/litre. The tests were performed using 96 well sterile plates (inoculum size of 1×10^5 CFU/mL). Compounds stock solutions were prepared at 12.8 mg/mL in 100% DMSO. A series of twofold dilutions were prepared in plate using RPMI 1640. Final concentrations ranged from 0.125 to 128 μg/mL at 1% DMSO.
# (§7) MIC is defined as the lowest concentration of antifungal agent which prevents any visible growth and was determined after 48 h of incubation for yeasts (35° C.) and after five days of incubation for filamentous fungi (35° C.).
# [2] = tested on: Aspergillus Niger (ATCC 16404); experiment: as above; assay type: cell-based; conditions: ATCC16404, 120 h, RPMI 1640 pH 7, five days at 35° C., geometric mean of two experiments
# Method: as §1, §2, §3, §4, §5, §6, §7
# [3] = tested on: Trichophyton Rubrum (ATCC 28188); experiment: as above; assay type: cell-based; conditions: ATCC28188, 120 h, RPMI 1640 pH 7, five days at 35° C., geometric mean of two experiments, read-out: MIC Trycophyton Rubrum ATCC 28188
# Method: as §1, §2, §3, §4, §5, §6, §7
# [4] = tested on: Scopulariopsis Brevicaulis (ATCC 36840); experiment: as above; assay type: cell-based; conditions: ATCC36840, 120 h, RPMI 1640 pH 7, five days at 35° C., geometric mean of two experiments
# Method: as §1, §2, §3, §4, §5, §6, §7
# [5] = tested on: Trichophyton Mentagrophytes (ATCC 9533); experiment: as above; assay type: cell-based; conditions: ATCC9533, 120 h, RPMI 1640 pH 7, five days at 35° C., geometric mean of two experiments, read-out: MIC Tricophyton Mentagrophytes ATCC 9533
# Method: as §1, §2, §3, §4, §5, §6, §7
# [6] = tested on: Candida Albicans (ATCC 90028); experiment: as above; assay type: cell-based; conditions: ATCC90028, RPMI 1640 pH 7, 48 h at 35° C., geometric mean of two experiments
# Method: as §1, §2, §3, §4, §5, §6, §7
SMILES,MIC [1] [µg/mL],MIC [2] [µg/mL],MIC [3] [µg/mL],MIC [4] [µg/mL],MIC [5] [µg/mL],MIC [6] [µg/mL],rate of nephrotoxicity (invasive aspergillosis) [%]
C[C@@H]1[C@H](O)[C@@H](C)/C=C/C=C/C=C/C=C/C=C/C=C/C=C/[C@H](O[C@@H]2O[C@H](C)[C@@H](O)[C@H](N)[C@@H]2O)C[C@@H]2O[C@](O)(C[C@@H](O)C[C@@H](O)[C@H](O)CC[C@@H](O)C[C@@H](O)CC(=O)O[C@H]1C)C[C@H](O)[C@H]2C(=O)O [Amphotericin B],–,–,–,–,–,–,31
"O=C(c1ccc2cccnc2c1O)N1CCC2CCCCC2C1 (stereo not shown) [Example 6, (8-Hydroxyquinolin-7-yl)(octahydroisoquinolin-2(1H)-yl)methanone]",2,0.5,1.41,1.41,1.41,1.41,–
"O=C(c1ccc2cccnc2c1O)N1Cc2ccccc2C1 [Example 10, (8-Hydroxyquinolin-7-yl)(isoindolin-2-yl)methanone]",2,0.25,1,2,2,2,–
"CN(C(=O)c1ccc2cccnc2c1O)c1ccc(Br)cc1 [Example 29, N-(4-Bromophenyl)-8-hydroxy-N-methylquinoline-7-carboxamide]",4,0.13,2,2,1,4,–
"O=C(c1ccc2cccnc2c1O)N1C2CCCCC2C2CCCCC21 (stereo not shown) [Example 49, (Decahydro-1H-carbazol-9(9aH)-yl)(8-hydroxyquinolin-7-yl)methanone]",2.83,0.25,0.71,1,1.41,2,–

# Continued, in another order:
MIC [1] [µg/mL],MIC [2] [µg/mL],MIC [3] [µg/mL],MIC [4] [µg/mL],MIC [5] [µg/mL],MIC [6] [µg/mL],SMILES,rate of nephrotoxicity (invasive aspergillosis) [%]
2,0.71,2,2,1,1.41,"CN(Cc1ccc(Cl)cc1)C(=O)c1ccc2cccnc2c1O [Example 56, N-(4-Chlorobenzyl)-8-hydroxy-N-methylquinoline-7-carboxamide]",–
2,0.25,1,0.71,2,2,"O=C(c1ccc2cccnc2c1O)N1CCCc2ccc(F)cc21 [Example 61, (7-Fluoro-3,4-dihydroquinolin-1(2H)-yl)(8-hydroxyquinolin-7-yl)methanone]",–
1,0.25,1,1,2,2,"O=C(c1ccc2cccnc2c1O)N1CCCc2c(F)cc(F)cc21 [Example 70, (5,7-Difluoro-3,4-dihydroquinolin-1(2H)-yl)(8-hydroxyquinolin-7-yl)methanone]",–
2.83,0.25,1,0.71,2,2,"O=C(c1ccc2cccnc2c1O)N1CCCc2c(F)cccc21 [Example 71, (5-Fluoro-3,4-dihydroquinolin-1(2H)-yl)(8-hydroxyquinolin-7-yl)methanone]",–
2,0.25,1,0.5,2,2,"O=C(c1ccc2cccnc2c1O)N1CCCc2cc(F)ccc21 [Example 72, (6-Fluoro-3,4-dihydroquinolin-1(2H)-yl)(8-hydroxyquinolin-7-yl)methanone]",–
1,0.125,2,4,2,2,"O=C(c1ccc2cccnc2c1O)N1CCCc2c(Cl)ccc(O)c21 [Example 73, (5-Chloro-8-hydroxy-3,4-dihydroquinolin-1(2H)-yl)(8-hydroxyquinolin-7-yl)methanone]",–
2,0.18,1,0.71,1.41,2,"O=C(c1ccc2cccnc2c1O)N1CCOc2ccccc21 [Example 74, (2H-Benzo[b][1,4]oxazin-4(3H)-yl)(8-hydroxyquinolin-7-yl)methanone]",–
